Laboratory results taken from patent US12049483B2, “Selective and noncovalent inhibitors of oncogenic RAS mutants” (New York University, priority 2020, dated 2024).
Peptide text beside a SMILES is read from it. * marks the point of attachment. Cbz = O=C(OCc1ccccc1)*

Assays:
KRAS(G12C) [1] = target: T1, KRAS(G12C) (Homo sapiens, UniProt P01116, G12C); test: Degradation of KRAS in RASless MEFs by VHL-monobody fusions; type: cell-based, mouse; set-up: expressed in transfected cells; host or cells: RASless mouse embryonic fibroblasts; settings: MLN4924 1 μM or MG132 5 μM for 24 hours
Experimental: (§1) Monobody development. General procedures for the development of monobodies against purified protein targets have been described previously. After four rounds of phage display library selection using biotinylated KRAS(G12C) at concentrations of 100 nM, 100 nM, 50 nM and 50 nM, the genes encoding monobodies from the enriched phage pool were transferred to a yeast display vector, which was used to construct yeast-display libraries. The yeast display libraries were sorted using a Bio-Rad S3e fluorescence-activated cell sorter or a […] II cell sorter (BD Biosciences). […] Single clones were then screened for selective binding to RAS mutants. The expression of monobodies on the surface of yeast cells were detected using mouse anti-VS and anti-mouse IgG-FITC conjugate. Target binding was detected with neutravidin Dylight650. Yeast cells were analyzed using an iQue flow cytometer (Sartorius). […]
Cell signaling assay and quantification of immunoblots. […] The supernatant was collected and measured for total protein amount using BCA assay (Thermo Scientific; 23227). […] The proteins were then transferred from the gel to a low fluorescence background PVDF membrane (Millipore; IPFL00010) or regular PVDF membrane (Millipore; ISEQ00010) depending on whether fluorescence or chemiluminescence detection was performed. […] The total RAS level was detected using a pan-RAS antibody (SCBT, sc-166691). […]
Target sequence in this assay (P01116 1-188 isoform P01116-2 G12C): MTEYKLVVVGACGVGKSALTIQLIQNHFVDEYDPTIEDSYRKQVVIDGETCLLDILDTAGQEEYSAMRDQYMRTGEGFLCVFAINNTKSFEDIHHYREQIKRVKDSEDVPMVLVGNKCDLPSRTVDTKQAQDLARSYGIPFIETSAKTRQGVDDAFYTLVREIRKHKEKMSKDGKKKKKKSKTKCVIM

ERK activation (pERK) = test: ERK activation in dox-inducible monobody-expressing cell lines; type: cell-based; settings: H358; after 24 and 48 hours; dox-induced expression or ARS1620 treatment
Experimental: Cell signaling assay and quantification of immunoblots. Cells were lysed in RIPA buffer (50 mM Tris-Cl pH 8, 150 mM NaCl, 5 mM EDTA pH8, 0.1% SDS, 1% NP40) supplemented with protease inhibitors (Roche; 5892991001) and phosphatase inhibitors (54 mM β-glycerophosphate, 10 mM NaF, 1 mM sodium vanadate) for 15 minutes on ice, and centrifuged at 15,000 g for 15 minutes. The supernatant was collected and measured for total protein amount using BCA assay (Thermo Scientific; 23227). Lysate (7-20 μg per well) was loaded onto a pre-cast SDS gel (BioRad; 456-1096) followed by electrophoresis. The proteins were then transferred from the gel to a low fluorescence background PVDF membrane (Millipore; IPFL00010) or regular PVDF membrane (Millipore; ISEQ00010) depending on whether fluorescence or chemiluminescence detection was performed. Phospho-ERK was detected using a rabbit anti-pERK antibody (Cell Signaling; 9101S) and total ERK was detected using a rabbit anti-ERK antibody (Cell Signaling; 9102S). Monobody expression was detected using mouse anti-Flag antibody (Sigma; F3165) or anti-HA tag antibody (BioLegend; 901516). Loading control was detected with primary antibody against tubulin-alpha (Thermo Scientific, 62204) or against cytochrome oxidase (COX IV) (Li-Cor, 926-42214). The total RAS level was detected using a pan-RAS antibody (SCBT, sc-166691). The KRAS level was determined using a KRAS-specific antibody (Sigma, WH0003845M1). For fluorescence detection of immunoblots, the membranes were imaged with a Licor Odyssey Clx imager (Li-Cor Bioscience) using IRDye anti-Rabbit 800CW and anti-Mouse 680LT (Li-Cor Bioscience, 926-32211 and 926-68020, respectively) as secondary antibodies. […] Band intensities of western blot were analyzed with Image Studio Lite version 5.2 (Li-Cor Bioscience). To quantify protein abundance in the degradation experiment, the intensities of pERK, RAS, KRAS, and Flag/HA tag bands were first normalized against the loading control of the perspective blot, which were either tubulin-α, COX IV or total ERK, followed by subsequent normalization to the zero time point. […]

KRAS(G12C) [2] = target: T1, KRAS(G12C); test: Yeast display binding titration, KRAS(G12C); set-up: KRAS4B residues 1-174 containing G12C, G12V, G12D, G13D, Q61L, WT; His6 (N, cleaved yes); Avi-tag (N, cleaved yes); made in house; host or cells: E. coli BL21(DE3); settings: ARS1620 added during nucleotide exchange
Experimental: Nucleotide exchange of RAS. Purified RAS proteins used in binding experiment and crystallization were prepared by diluting stock protein (typically containing 20-250 μM RAS) 25 times with 20 mM Tris-Cl buffer pH 7.5 containing 5 mM EDTA, 0.1 mM DTT and 1 mM final concentration of a nucleotide (GDP or GTPγS). Samples were incubated at 30° C. for 30 minutes. MgCl2 was then added to the sample at a final concentration of 20 mM and the solution was further incubated on ice for at least 5 minutes prior to use.
as §1
Target sequence in this assay (P01116 1-174 isoform P01116-2 G12C): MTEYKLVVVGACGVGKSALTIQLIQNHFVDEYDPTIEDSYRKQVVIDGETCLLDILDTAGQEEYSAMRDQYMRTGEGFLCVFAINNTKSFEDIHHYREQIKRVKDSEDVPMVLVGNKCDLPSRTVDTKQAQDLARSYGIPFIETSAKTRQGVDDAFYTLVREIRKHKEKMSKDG

Row | binding of 12VC1 to KRAS(G12C) after reaction with ARS1620 (KRAS(G12C) [2]) | SMILES | effect on RAS degradation by VHL-monobody fusion (KRAS(G12C) [1]) | ERK activation in H358 cells (ERK activation (pERK))
1 | – | CC(C)C[C@@H](C=O)NC(=O)[C@H](CC(C)C)NC(=O)[C@H](CC(C)C)NC(=O)OCc1ccccc1 [MG132] (Cbz-Leu-Leu-Leu-aldehyde) | rescued | –
2 | abolished | C=CC(=O)N1CCN(c2ncnc3c(F)c(-c4c(O)cccc4F)c(Cl)cc23)CC1 [ARS1620] | – | effectively inhibited
3 | – | NS(=O)(=O)OC[C@@H]1C[C@@H](n2ccc3c(N[C@H]4CCc5ccccc54)ncnc32)C[C@@H]1O [MLN4924] | rescued | –
